Data reported in PubChem BioAssay (NCI).
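A five-concentration, 48-hour dose response in 96-well plates underlies each endpoint, interpolated linearly between surrounding concentrations. Here, GI50 denotes the concentration required for 50% inhibition of growth. TGI denotes the concentration required for complete inhibition of growth.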

Key:
Assay in all cases: NCI-60 cell line screen, 48 h; in the data active = GI50 below about 0.43 µM; inactive = the rest
[1] = tested on: NCI-H460 lung
[2] = tested on: MALME-3M melanoma
[3] = tested on: OVCAR-5 ovarian
[4] = tested on: MDA-MB-231 breast
[5] = tested on: DU-145 prostate
[6] = tested on: RPMI-8226 leukemia
[7] = tested on: UACC-257 melanoma
[8] = tested on: SW-620 colon
[9] = tested on: SNB-75 CNS
[10] = tested on: HT29 colon
[11] = tested on: K-562 leukemia
[12] = tested on: KM12 colon
[13] = tested on: LOX IMVI melanoma
[14] = tested on: MOLT-4 leukemia
[15] = tested on: IGROV1 ovarian
[16] = tested on: HL-60(TB) leukemia
[17] = tested on: SF-268 CNS
[18] = tested on: CAKI-1 renal
[19] = tested on: A549 NSCLC
[20] = tested on: NCI-H23 lung
[21] = tested on: CCRF-CEM leukemia
[22] = tested on: SK-MEL-5 melanoma
[23] = tested on: A498 renal
[24] = tested on: PC-3 prostate
[25] = tested on: HS 578T breast
[26] = tested on: OVCAR-8 ovarian
[27] = tested on: OVCAR-4 ovarian
[28] = tested on: HCC-2998 colon
[29] = tested on: BT-549 breast
[30] = tested on: MDA-MB-435
[31] = tested on: OVCAR-3 ovarian
[32] = tested on: SF-539 CNS
[33] = tested on: SK-MEL-28 melanoma
[34] = tested on: T-47D breast
[35] = tested on: SR leukemia
[36] = tested on: M14 melanoma
[37] = tested on: NCI-H226 lung
[38] = tested on: NCI-H522 lung
[39] = tested on: TK-10 renal
[40] = tested on: RXF 393 renal
[41] = tested on: HCT-15 colon
[42] = tested on: SK-OV-3 ovarian
[43] = tested on: UO-31 renal
[44] = tested on: SF-295 CNS
[45] = tested on: NCI/ADR-RES ovarian
[46] = tested on: COLO 205 colon
[47] = tested on: EKVX NSCLC
[48] = tested on: 786-0 renal
[49] = tested on: HCT-116 colon
[50] = tested on: SN12C renal
[51] = tested on: UACC-62 melanoma
[52] = tested on: MCF7 breast
[53] = tested on: ACHN renal
[54] = tested on: HOP-92 NSCLC
[55] = tested on: SK-MEL-2 melanoma
[56] = tested on: SNB-19 CNS
[57] = tested on: U251 CNS

COc1cc(C(=O)N2CCN(c3ccccn3)CC2)c(N)cc1OCc1ccccc1
74.1 µM: TGI [11]
> 100 µM: TGI [1] | TGI [2] | TGI [3] | TGI [4] | TGI [5] | TGI [6] | TGI [7] | TGI [8] | TGI [9] | TGI [10] | TGI [12] | TGI [13] | TGI [14] | TGI [15] | TGI [16] | TGI [17] | TGI [18] | TGI [19] | TGI [20] | TGI [22] | TGI [23] | TGI [24] | TGI [25] | TGI [26] | TGI [27] | TGI [28] | TGI [29] | TGI [30] | TGI [31] | TGI [32] | TGI [33] | TGI [34] | TGI [35] | TGI [36] | TGI [37] | TGI [38] | TGI [39] | TGI [40] | TGI [41] | TGI [42] | TGI [43] | TGI [44] | TGI [45] | TGI [46] | TGI [47] | TGI [48] | TGI [49] | TGI [50] | TGI [51] | TGI [52] | TGI [53] | TGI [54] | TGI [55] | TGI [56] | TGI [57]
39.5 µM: TGI [21]
inactive: GI50 [1] > 100 µM | GI50 [2] > 100 µM | GI50 [3] > 100 µM | GI50 [4] > 100 µM | GI50 [5] > 100 µM | GI50 [6] 56.4 µM | GI50 [7] > 100 µM | GI50 [8] > 100 µM | GI50 [9] 39.9 µM | GI50 [10] 78.2 µM | GI50 [11] 20 µM | GI50 [12] > 100 µM | GI50 [13] > 100 µM | GI50 [14] 34.1 µM | GI50 [15] > 100 µM | GI50 [16] 82.4 µM | GI50 [17] > 100 µM | GI50 [18] > 100 µM | GI50 [19] > 100 µM | GI50 [20] > 100 µM | GI50 [21] 21 µM | GI50 [22] 30.1 µM | GI50 [23] 91.2 µM | GI50 [24] > 100 µM | GI50 [25] > 100 µM | GI50 [26] > 100 µM | GI50 [27] 69.9 µM | GI50 [28] > 100 µM | GI50 [29] 66.4 µM | GI50 [30] > 100 µM | GI50 [31] 55.8 µM | GI50 [32] > 100 µM | GI50 [33] > 100 µM | GI50 [34] 45.2 µM | GI50 [35] 77.7 µM | GI50 [36] > 100 µM | GI50 [37] > 100 µM | GI50 [38] > 100 µM | GI50 [39] > 100 µM | GI50 [40] > 100 µM | GI50 [41] > 100 µM | GI50 [42] > 100 µM | GI50 [43] 68.3 µM | GI50 [44] > 100 µM | GI50 [45] 74.6 µM | GI50 [46] 96.8 µM | GI50 [47] > 100 µM | GI50 [48] > 100 µM | GI50 [49] > 100 µM | GI50 [50] 46.8 µM | GI50 [51] 81 µM | GI50 [52] 58.5 µM | GI50 [53] > 100 µM | GI50 [54] > 100 µM | GI50 [55] > 100 µM | GI50 [56] > 100 µM | GI50 [57] > 100 µM
